The data set relates to E. coli WP2 uvrA. Nature of the data set: Ames assay, E. coli strain. The data set is classed as cell-based. How it is done: Ames assays were performed using four strains of Salmonella typhimurium (TA1535, TA1537, TA98 and TA100) and a single strain of E. coli (WRP2 uvrA) in the presence and absence of S9 tissue homogenate. Dose levels (µg/plate) up to 4000 were assessed for WP2 uvrA and TA98, 500 for TA1535, 250 for TA1537 and 62.5 for TA100.
For orientation: The Ames test detects mutagens through reverse mutation in bacteria.

Where “and” joins values, the source holds several entries; their conditions need not be identical. Identical values can stand only once.

Consider `Cc1c(CN(C)C(=O)/C=C/c2cnc3c(c2)N[C@H](C)[C@H](OP(=O)([O-])[O-])C(=O)N3)oc2ccccc12.[Na+].[Na+]` [Debio 1453 P], for which the “Ames bacterial mutation assessment, Mean” value reads like this: (with S9, 62.5 µg/plate) 32; (with S9, 250 µg/plate) 31; (with S9, 500 µg/plate) 34; (with S9, 1000 µg/plate) 28; (with S9, 2000 µg/plate) 26; (with S9, 4000 µg/plate) 25. For the same compound, the “Ames bacterial mutation assessment, Mean” value runs as follows: (without S9, 62.5 µg/plate) 32; (without S9, 250 µg/plate) 26; (without S9, 500 µg/plate) 25; (without S9, 1000 µg/plate) 24; (without S9, 2000 µg/plate) 24; (without S9, 4000 µg/plate) 22. The Colony count (with S9, 62.5 µg/plate) is 33 and 34 and 28; the Colony count (with S9, 250 µg/plate) was 33 and 31 and 30; the Colony count (with S9, 500 µg/plate) was 34 and 36 and 31; the Colony count (with S9, 1000 µg/plate) is 26 and 30 and 28; the Colony count (with S9, 2000 µg/plate) is 27 and 26 and 25; the Colony count (with S9, 4000 µg/plate) was 25 and 26 and 23. The Colony count is 31 and 30 and 36 (without S9, 62.5 µg/plate); 26 and 28 and 25 (without S9, 250 µg/plate); 21 and 26 and 27 (without S9, 500 µg/plate); 25 and 24 (without S9, 1000 µg/plate); 21 and 25 (without S9, 2000 µg/plate); 23 and 18 and 24 (without S9, 4000 µg/plate).

These data come from PMC12446476 (Nature Communications, 2025).
